Data reported in patent US5420115A, “Method for the treatment of protoza infections with 2^1 -deoxy-2^1 -fluoropurine nucleosides” (priority 1992, dated 1995).
Like-named read-outs stand apart in the source and are kept apart here.

How the values were obtained:
[1] = tested on: Influenza A and B; format: in vivo, mouse; settings: given as +(n), route and dose not specified
[2] = tested on: Influenza A and B; assay: microbe, parasite or virus in culture; format: cell-based, chick embryo cells; settings: read-out: Anti-influenza Activity CE cells IC50
[3] = primary chick embryo (CE) cells, influenza strain not given

| Structure (SMILES) | Mouse log10 reduction in virus titre (Average of 5 Mice) [1] [log10] | IC50 [2, 3] [nM] | IC50 ([2]; in Gallus gallus) [nM] |
| --- | --- | --- | --- |
| Nc1ncc2ncn([C@@H]3O[C@H](CO)[C@@H](O)[C@H]3F)c2n1 [Example 9, 2-Amino-9-(2-deoxy-2-fluoro-β-D-ribofuranosyl)-9H-purine] | 1.6 | – | – |
| COc1nc(N)nc2c1ncn2[C@@H]1O[C@H](CO)[C@@H](O)[C@H]1F [Example 12, 2-Amino-9-(2-deoxy-2-fluoro-β-D-ribofuranosyl)-6-methoxy-9H-purine] | 1.9 | 400 | – |
| Nc1nc2c(ncn2[C@@H]2O[C@H](CO)[C@@H](O)[C@H]2F)c(=O)[nH]1 [Example 7, 9-(2-Deoxy-2-fluoro-β-D-ribofuranosyl)guanine] | 2.4 | 800 to 2000 | – |
| Nc1ncnc2c1ncn2[C@@H]1O[C@H](CO)[C@@H](O)[C@H]1F [Example 8, 9-(2-Deoxy-2-fluoro-β-D-ribofuranosyl)adenine] | 2.3 | 4000 | – |
| Nc1nc(N)c2ncn([C@@H]3O[C@H](CO)[C@@H](O)[C@H]3F)c2n1 [Example 6, 2,6-Diamino-9-(2-deoxy-2-fluoro-β-D-ribofuranosyl)-9H-purine] | 2.1 | – | 600 |
